Results: patent publication US20200390764A1, “PHARMACEUTICAL FORMULATIONS, PROCESSES FOR PREPARATION, AND METHODS OF USE” (Sunesis Pharmaceuticals, Inc., priority 2017, published 2020)
Converted amounts (≈) assume the structure as drawn.

Tests used:
[1] = Aqueous solubility; type: physicochemical
Description: The present invention provides a process for the preparation of a pharmaceutical composition comprising active compounds as described herein, with improved absorption. […] According to the process of the present invention, it is possible to provide, from an active compound, a formulation in which the dissolution rate and oral bioavailability of the drug are high. Furthermore, the solid dispersion extrudates of the present invention have good stability at room temperature.
To overcome the inherent hurdles posed by this class of drugs, three alternative formulation approaches were screened: lipid-based formulation, nano-suspension, and solid dispersion via hot melt extrusion (HME).

[2] = Oral pharmacokinetics in mice; type: in vivo; conditions: for Tmax / bioavailability: mouse, in vivo; for bioavailability: read-out: oral bioavailability % F
[3] = test system: MV4-11 xenografts; experiment: In vivo pathway modulation in MV4-11 xenografts; conditions: 4 hours and 24 hours after a single oral dose, MV4-11 xenografts in mice
Method: Pathway modulation was assessed in vivo using MV4-11 xenografts in mice. […] Efficacy was assessed by 21-day dosing in MV4-11 xenografts.

[4] = test system: cell lines derived from hematologic cancers; experiment: Apoptosis induction in cancer cell lines; type: cell-based; conditions: after 24 hours
Description: (§1) The compounds bind deep in the adaptive (allosteric) pocket, causing a distortion in the N-terminal domain thereby perturbing the PIF-pocket and thus negatively modulating PI-independent substrate binding. […] Anti-proliferative activity correlated with pathway modulation assessed by inhibition of phosphorylation of PDK1, RSK2, and AKT.

[5] = test system: cell lines derived from hematologic cancers; experiment: 72-hour viability assays; type: cell-based
Description: as §1

[6] = test system: phosphorylation of PDK1, RSK2, and AKT; experiment: Pathway modulation in cells: inhibition of phosphorylation; type: cell-based
Description: as §1

[7] = test system: cell lines derived from hematologic cancers; experiment: Anti-proliferative activity in a panel of hematologic cancer cell lines; type: cell-based; conditions: panel of more than 20 cell lines: AML, multiple myeloma, DLBCL, Mantle cell lymphoma
Description: as §1

[8] = biological target: T1, PDK1 (Homo sapiens, UniProt O15530); experiment: PDK1 biochemical potency (binding of the inactive conformation); conditions: compared to the PDK1 inhibitor GSK2334470
T1 sequence (O15530 1-556): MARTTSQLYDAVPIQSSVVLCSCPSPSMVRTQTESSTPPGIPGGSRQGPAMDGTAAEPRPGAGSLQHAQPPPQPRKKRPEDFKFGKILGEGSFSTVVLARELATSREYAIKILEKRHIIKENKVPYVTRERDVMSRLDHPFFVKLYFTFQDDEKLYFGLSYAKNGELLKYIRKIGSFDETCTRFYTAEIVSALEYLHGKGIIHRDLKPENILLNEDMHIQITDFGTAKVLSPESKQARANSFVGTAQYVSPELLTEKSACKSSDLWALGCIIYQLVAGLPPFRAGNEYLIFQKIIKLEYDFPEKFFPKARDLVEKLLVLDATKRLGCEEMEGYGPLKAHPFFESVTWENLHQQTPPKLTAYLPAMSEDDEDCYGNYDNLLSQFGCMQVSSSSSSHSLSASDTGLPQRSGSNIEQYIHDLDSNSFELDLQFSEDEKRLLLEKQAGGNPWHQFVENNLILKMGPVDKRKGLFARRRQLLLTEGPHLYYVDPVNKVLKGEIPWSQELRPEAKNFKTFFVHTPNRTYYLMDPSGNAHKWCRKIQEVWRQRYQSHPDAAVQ
Description: as §1

| SMILES | solubility ([1]; aqueous buffer, over the physiological pH range) | solubility ([1]; aqueous medium (not specified further)) | half-life [2] | Tmax [2] | bioavailability [2] | pathway modulation in vivo [3] | apoptosis [4] | fold more potent than GSK2334470 in viability assays [5] | inhibition of PDK1 phosphorylation, fold more after 24 hours than 4 hours ([6]; 24 hours vs 4 hours) | fold more potent than GSK2334470 at inhibiting PDK1 and RSK2 phosphorylation ([6]; all cell lines tested) | EC50 [7] | biochemical potency compared to GSK2334470 [8] |
| --- | --- | --- | --- | --- | --- | --- | --- | --- | --- | --- | --- | --- |
| C[C@H](NC(=O)c1nc(C#N)cnc1NCc1ccc(-c2cnc3[nH]nc(N)c3n2)cc1)c1ccc(F)c(F)c1 (stereo in doubt) [Compound 1, 3-[4-(3-Amino-1H-pyrazolo[3,4-b]pyrazin-5-yl)-benzylamino]-6-cyano-pyrazine-2-carboxylic acid [1-(3,4-difluoro-phenyl)-ethyl]-amide] | < 0.1 µg/mL | 0.1 µg/mL (≈ 0.19 µM) | long half-life | 4 to 8 h | > 40% | Potent pathway modulation |  |  |  |  |  |  |
| CNc1n[nH]c2ncc(-c3ccc(CNc4ncc(C#N)nc4C(=O)N[C@@H](C)c4ccc(F)c(F)c4)cc3)cc12 [Compound 2, 6-Cyano-3-[4-(3-methylamino-1H-pyrazolo[3,4-b]pyridin-5-yl)-benzylamino]-pyrazine-2-carboxylic acid [1-(3,4-difluoro-phenyl)-ethyl]-amide] |  |  | long half-life | 4 to 8 h | > 40% | Potent pathway modulation | substantial apoptosis | at least 10 fold | 2-5 fold | 10- to 30 fold | 0.003 to 0.9 µM | comparable biochemical potency |
